Where two headings read alike, the source gives them in different places.
Key:
[1] = biological target: T1, serotonin 5-HT1A receptor (Rattus norvegicus, UniProt P19327); experiment: radioligand binding assay, 5-HT1A, [3H]-8-OH-DPAT; conditions: rat brain cortex; read-out: Ki ± SD, 5-HT1A [3H]8OH-DPAT
T1 construct: serotonin 5-HT1A receptor, [^3H]-8-OH-DPAT, rat brain cortex; from tissue; host or cells: rat brain cortex
T1 sequence (P19327 1-422): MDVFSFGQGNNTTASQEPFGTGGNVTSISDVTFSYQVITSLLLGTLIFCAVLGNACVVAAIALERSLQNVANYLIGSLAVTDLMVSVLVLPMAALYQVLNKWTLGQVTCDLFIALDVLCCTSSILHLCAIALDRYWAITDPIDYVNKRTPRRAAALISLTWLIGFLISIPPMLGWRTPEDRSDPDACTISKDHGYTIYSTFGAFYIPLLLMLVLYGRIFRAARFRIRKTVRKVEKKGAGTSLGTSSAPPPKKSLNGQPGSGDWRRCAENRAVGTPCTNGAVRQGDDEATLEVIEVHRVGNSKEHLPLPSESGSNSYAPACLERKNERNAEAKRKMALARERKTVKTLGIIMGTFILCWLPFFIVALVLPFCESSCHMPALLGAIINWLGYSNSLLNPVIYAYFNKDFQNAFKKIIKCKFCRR
Experimental: (§1) All reactions were monitored by TLC, carried out on Merck 60G F254 plates with fluorescent indicator and the plates were visualized with UV light (254 nm). Each final compound and intermediate was purified by silica gel column chromatography (Macherey-Nagel 60 0,063–0,2 mm/70–230 mesh). […] Unless otherwise stated, all spectra were recorded in CDCl3. Chemical shifts are reported in ppm using Me4Si as internal standard. The following abbreviations are used to describe peak patterns when appropriate: s (singlet), d (doublet), t (triplet), m (multiplet), q (quartet), qt (quintet), dd (double doublet), ddd (double dd), bs (broad singlet). Mass spectra of the final products were performed on LTQ Orbitrap XL™ Fourier transform mass spectrometer (FTMS) equipped with ESI ION MAX™ source (Thermo Fisher, San José, USA). Melting points were determined using a Buchi B-540 hot-stage instrument and are uncorrected. […] All the compounds were dissolved in 5% DMSO. The following specific radioligands and tissue sources were used: (a)serotonin 5-HT1A receptor, [^3H]-8-OH-DPAT, rat brain cortex; (b) serotonin 5-HT2A receptor, [^3H]ketanserin, rat brain cortex; (c)serotonin 5-HT2C receptor, [^3H]mesulergine, rat brain cortex. Non-specific binding was determined as described in the experimental section, and specific binding as the difference between total and non-specific binding. […] The IC50 values obtained were used to calculate apparent inhibition constants (Ki) by the method of Cheng and Prussoff, from the following equation: Ki = IC50/(1 + S/KD) where S represents the concentration of the hot ligand used and KD its receptor dissociation constant (KD values, obtained by Scatchard analysis, were calculated for each labeled ligand). Radioligand binding assays for 5-HT1A were performed following a published procedure. 5-HT2A and 5-HT2C binding assays were performed reported by Herndon et al..

[2] = biological target: T2, serotonin 5-HT2A receptor (Rattus norvegicus, UniProt P14842); experiment: radioligand binding assay, 5-HT2A, [3H]ketanserin; conditions: rat brain cortex; read-out: Ki ± SD, 5-HT2A [3H]Ketanserin
T2 construct: serotonin 5-HT2A receptor, [^3H]ketanserin, rat brain cortex; from tissue; host or cells: rat brain cortex
T2 sequence (P14842 whole entry): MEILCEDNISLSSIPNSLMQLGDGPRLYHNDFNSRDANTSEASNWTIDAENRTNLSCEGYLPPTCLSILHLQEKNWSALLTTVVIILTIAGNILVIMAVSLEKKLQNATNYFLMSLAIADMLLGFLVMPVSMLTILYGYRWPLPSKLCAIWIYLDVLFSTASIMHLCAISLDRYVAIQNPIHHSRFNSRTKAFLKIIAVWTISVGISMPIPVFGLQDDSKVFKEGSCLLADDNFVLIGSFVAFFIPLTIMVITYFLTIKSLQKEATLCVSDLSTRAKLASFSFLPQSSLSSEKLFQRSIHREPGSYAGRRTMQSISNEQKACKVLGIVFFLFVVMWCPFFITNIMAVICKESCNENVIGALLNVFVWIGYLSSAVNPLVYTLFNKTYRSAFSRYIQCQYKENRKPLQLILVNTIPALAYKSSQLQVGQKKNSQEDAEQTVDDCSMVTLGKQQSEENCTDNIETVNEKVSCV
Experimental: as §1

[3] = biological target: T3, serotonin 5-HT2C receptor (Rattus norvegicus, UniProt P08909); experiment: radioligand binding assay, 5-HT2C, [3H]mesulergine; conditions: read-out: Ki ± SD, 5-HT2C [3H]Mesulergine
T3 construct: serotonin 5-HT2C receptor, [^3H]mesulergine, rat brain cortex; from tissue; host or cells: rat brain cortex
T3 sequence (P08909 33-460): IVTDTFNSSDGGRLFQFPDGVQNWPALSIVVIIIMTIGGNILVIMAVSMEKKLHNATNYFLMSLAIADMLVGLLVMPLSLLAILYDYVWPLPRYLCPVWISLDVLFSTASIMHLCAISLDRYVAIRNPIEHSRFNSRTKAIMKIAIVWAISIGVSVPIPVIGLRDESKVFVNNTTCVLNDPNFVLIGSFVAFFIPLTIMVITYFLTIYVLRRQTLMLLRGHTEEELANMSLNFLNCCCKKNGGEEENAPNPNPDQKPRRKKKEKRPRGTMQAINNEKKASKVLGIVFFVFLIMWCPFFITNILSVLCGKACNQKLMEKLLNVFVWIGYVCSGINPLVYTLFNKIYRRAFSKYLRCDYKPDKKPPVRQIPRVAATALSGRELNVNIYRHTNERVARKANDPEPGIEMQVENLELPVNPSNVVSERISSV
Experimental: as §1

MCF7 cells = experiment: MCF7 cell viability, sulforhodamine B assay; type: cell-based, human; conditions: for IC50: Homo sapiens, MCF7
Experimental: (§2) MCF7 (ER^+, PR^+, HER2^−), SKBR3 (ER^−, PR^+, HER2^+) and MDA-MB231 (ER^−, PR^−, HER2^−) human BC cells and MCF10A non-cancer breast epithelial cells were available in our laboratory. MCF7, SKBR3 and MDA-MB231 cells were cultured in DMEM, supplemented with 10% FBS, 2 mM glutamine, 100 units/ml penicillin and 100 units/ml streptomycin. MCF10A cells were cultured in MEBM, supplemented with 0.4% BPE, 0.1% hEGF, 0.1%, Insulin, 0.1% Hydrocortisone and 0.1% GA-1000. […] Treatment with SER were carried out in culture conditions. Treatment with Tamoxifen and/or SER were carried out upon 48 h estrogen starvation in phenol-red free medium supplemented with 10% Charcoal Stripped (C/S) FBS, 2 mM glutamine, 100 units/ml penicillin and 100 units/ml streptomycin.
(§3) Cells were fixed with 50% trichloroacetic acid for at least 2 h at 4 °C, washed with distilled and de-ionized water, air-dryed and stained 30 min with 0.4% sulforhodamine B in 1% acetic acid. Unbound dye was removed and 10 mM tris-HCl solution (pH 7.5) was added to dissolve the protein-bound dye. Cell survival was assessed by optical density determination at 510 nm using a microplate reader.
After 48 and 72 h, cell viability was assessed by sulforhodamine B assay (see Methods).

SKBR3 cells = experiment: SKBR3 cell viability, sulforhodamine B assay; type: cell-based, human; conditions: for IC50: Homo sapiens, SK-BR-3, 72 h treatment
Experimental: as §2, §3
Fig. 3 Effect of SER on SKBR3 cell viability. […] Cell viability was assessed, after 72 h, by sulforhodamine B assay (see Methods).

MDA-MB231 cells = experiment: MDA-MB231 cell viability, sulforhodamine B assay; type: cell-based, human; conditions: for IC50: Homo sapiens, MDA-MB-231, 72 h treatment
Experimental: as §2, §3
Cell viability was assessed, after 72 h, by sulforhodamine B assay (see Methods).

[4] = 48 h treatment, read-out: IC50 MCF7 48h
[5] = 72 h treatment, read-out: IC50 MCF7

Structure (SMILES) | Ki [1] | Ki [2] | Ki ([3]; rat brain cortex) | IC50 (MCF7 cells; [4]) | IC50 (MCF7 cells; [5]) | IC50 (SKBR3 cells) | inhibition of MDA-MB231 cell growth (MDA-MB231 cells; 100 μM, 72 h) | IC50 (MDA-MB231 cells) | Ki [3] | reduction of MCF7 cell viability (MCF7 cells; 50 μM, 72 h) | reduction of SKBR3 cell viability (SKBR3 cells; 50 μM, 72 h)
O=C(c1ccco1)N1CCN(CC(O)CON2C(=O)C3C4C=CC(C4)C3C2=O)CC1 (stereo not shown) [SER31, 4-[3-[4-(2-furoyl)piperazin-1-yl]propoxy-2-ol]-4-aza-tricyclo [5.2.1.02,6]dec-8-ene-3,5-dione] | 1.05 ± 0.000231 µM | > 10 µM | 0.00504 ± 0.000227 µM | 336 ± 153 µM | 99.2 ± 33 µM | 100 ± 30.8 µM | able to inhibit | 136 ± 38.6 µM |  |  | 
O=C(NCCN1CCN(c2cccc(C(F)(F)F)c2)CC1)c1ccccn1 [SER167] | 1.32 ± 0.012 µM | 0.0485 ± 0.0027 µM |  | 151 ± 41.6 µM | 54.2 ± 10 µM | 152 ± 21.6 µM |  | 223 ± 154 µM | 0.14 ± 0.0025 µM |  | 
O=C(NCCN1CCN(C(c2ccc(F)cc2)c2ccc(F)cc2)CC1)c1ccccn1 [SER177] |  | 0.218 ± 0.0093 µM | 0.0008 ± 5e-05 µM | 253 ± 65.6 µM | 66.6 ± 16.2 µM | 43.3 ± 11.1 µM |  | 198 ± 66.7 µM |  |  | 
O=C(NCCCN1CCN(Cc2ccc3c(c2)OCO3)CC1)c1ccccn1 [SER195] |  | 0.0453 ± 0.0057 µM |  | 156 ± 36.1 µM | 53.3 ± 8.29 µM | 150 ± 26 µM |  | 322 ± 118 µM |  |  | 
O=C(NCCCN1CCN(C(=O)c2ccco2)CC1)c1ccccn1 [SER196] |  | 0.00168 ± 0.0004 µM |  | 206 ± 50.7 µM | 124 ± 31 µM | 202 ± 31.2 µM |  | 306 ± 65.8 µM |  |  | 
O=C(NCCCN1CCN(C(c2ccc(F)cc2)c2ccc(F)cc2)CC1)c1ccccn1 [SER198] | 0.0527 ± 0.0027 µM | 0.0778 ± 0.0021 µM |  | 106 ± 18.4 µM | 10.2 ± 2.5 µM | 67.7 ± 8.02 µM |  | 91.3 ± 18.6 µM | 0.117 ± 0.0061 µM | ≈ 70% | ≈ 50%
